Measured values from US8637480B2, “Mitochondrial function-improving agent” (National University Corporation Kumamoto University, priority 2009, dated 2014).
d = 2'-deoxy (DNA); r = 2'-OH (RNA)

Key:
[1] = system: LSD1 target genes such as PGC-1α in 3T3-L1 cells; assay: Expression of LSD1 target genes under inhibition of enzymes associated with FAD synthesis (quantitative RT-PCR); format: cell-based, mouse; settings: siRNA against FAD synthesis enzymes
Protocol: (8) Induction of Expression of LSD1 Target Genes by Inhibition of Enzyme Associated with FAD Synthesis (FIG. 9)
(§1) Using Trizol reagent (Invitrogen), total RNA was extracted from 3T3-L1 cells in which siRNA against riboflavin kinase (RFK) or FAD synthase (FADS) had been introduced. […] Using FAD assay kit (BioVision), the amount of FAD in the cells was measured under inhibition of FAD synthesis.

[2] = system: FAD in 3T3-L1 cells; assay: Amount of FAD in cells (FAD assay kit); format: cell-based, mouse; settings: FAD synthesis inhibited
Protocol: as §1

[3] = system: mPGC-1α promoter (pGL3-PGC-1α reporter) in 3T3-L1 cells; assay: PGC-1α promoter activity by luciferase assay; format: cell-based, mouse; settings: adipose differentiation induced for 24 hours
Protocol: (4) Analysis of PGC-1α Promoter Activity by Luciferase Assay (FIG. 5)
In order to construct pGL3-PGC-1α (PGC-1α/Luc) that is a luciferase reporter vector containing an mPGC-1α promoter, a 3707 bps promoter fragment from −3627 to +80 was amplified by PCR, using primers containing a MluI site and a XhoI site at the 5′-terminus and 3′-terminus thereof, respectively. Luciferase assay was carried out using Dual-Luciferase Reporter Assay System (Promega) in accordance with protocols included therewith. 3T3-L1 cells were co-transfected with the pGL3-PGC-1α reporter vector and a pRL-TK reference vector, and adipose differentiation was induced in the presence or absence of TC for 24 hours. Thereafter, luciferase activity was measured. When siRNA was applied, it was introduced 24 hours before transfection with the reporter.

[4] = system: LSD1 target genes in 3T3-L1 cells; assay: Comprehensive analysis of LSD1 target genes in 3T3-L1 cells using microarray; format: cell-based, mouse; settings: for expression of the LSD1 target candidates (microarray): tranylcypromine 10^−4 M
Protocol: (1) Comprehensive Analysis of LSD1 Target Genes in 3T3-L1 Cells, Using Microarray (FIG. 1)
An adipogenesis induction medium was prepared by dissolving […] 3-isobutyl-1-methylxanthine, 1 μM dexamethasone and 5 μg/ml insulin in a Dulbecco's modified Eagle's medium containing 10% fetal bovine serum. Total RNA was extracted using RNeasy mini column (Qiagen). Using GeneChip Mouse Genome Array 430—2 in combination with GeneChip Hybridization, Wash and Stain Kit (Affymetrix), genome-wide expression analysis was carried out
Thereafter, RNA analysis was carried out as described above. Using GeneChip Mouse Genome Array 430—2 in combination with GeneChip Hybridization, Wash and Stain Kit (Affymetrix), genome-wide expression analysis was carried out.

[5] = system: PGC-1α gene expression in 3T3-L1 cells; assay: Expression analysis of PGC-1α gene and the like by quantitative real-time PCR; format: cell-based, mouse; settings: standardized against 36B4, versus control siRNA or vehicle
Protocol: (2) Expression Analysis of PGC-1α gene and the Like by Quantitative Real-time PCR (FIG. 2)
Total RNA was extracted using Trizol reagent (Invitrogen). Quantitative RT-PCR was carried out using Fast SYBR Green System (Applied Biosciences). […] The value is given as a multiple of induction to a sample into which control siRNA has been introduced or a sample treated with a vehicle. Statistical significant difference is indicated by *p<0.05, **p<0.01, with respect to control (the same applies below). The following primers were used.

[6] = system: 3T3-L1 cells; assay: Mitochondrial biosynthesis in 3T3-L1 cells by JC-1 staining and flow cytometry; format: cell-based, mouse; settings: tranylcypromine 10^−3 or 10^−4 M, flow cytometry
Protocol: For the measurement of mitochondrial biosynthesis, cells were stained with a fluorescent dye JC-1 (Molecular Probes), and they were then analyzed by flow cytometry. JC-1 binds to the mitochondrial inner membrane to emit green fluorescence, and forms a red fluorescent aggregate, depending on membrane potential. Accordingly, the amount of mitochondria can be evaluated by detecting the green fluorescence, whereas the amount of mitochondrial electron transport can be evaluated by detecting the red fluorescence. […] Subsequently, the cells were allowed to come into contact with 5 μg/ml JC-1 in a medium at 37° C. for 15 minutes, and they were then suspended in PBS, followed by FACS analysis. The green fluorescence and the red fluorescence were detected by FL1 and FL2 settings, respectively. The value indicates a mean fluorescence intensity in each setting.

[7] = system: dimethylated H3K4 at LSD1 target gene promoters in 3T3-L1 cells; assay: Chromatin immunoprecipitation (ChIP) assay for methylation of H3K4; format: cell-based, mouse
Protocol: (3) Chromatin Immunoprecipitation (ChIP) Assay for Detecting Methylation of 4th Lysine Residue of Histone H3 (H3K4) and Binding of LSD1 (FIG. 3 and FIG. 4)
A DNA-protein complex of 3T3-L1 cells was crosslinked using 1% formalin, and chromatin was then fragmented using a water tank ultrasonic processor. The chromatin fragments were incubated at 4° C. overnight in the presence of an antibody directed against methyl-H3K4, LSD1 or BHC80. Thereafter, the reaction product was recovered using agarose beads to which protein A and protein G had been bound. DNA was isolated, and real-time PCR was then carried out using the following primer set

[8] = system: LSD1 target genes such as PGC-1α in 3T3-L1 cells; settings: 24 hours, 10^−4 M (clorgyline 10^−5 M)
Protocol: (12) Effects of Various Types of MAO Inhibitors on LSD1 Target Gene Group (FIG. 13)
Thereafter, RNA analysis was carried out. Expression analysis was carried out as described above. The expression level of PGC-1α or the like was standardized against the internal control gene 36B4. The value was given as a multiple of induction to a control treated with a vehicle.

[9] = system: LSD1 target genes including PGC-1α; settings: high fat diet 6 weeks, 10 mg/kg intraperitoneally every other day, versus PBS
[10] = 3T3-L1 cells, 24 hours differentiation induction

| Molecule | expression of LSD1 target genes such as PGC-1α [1] | amount of FAD in a cell [2] | expression of luciferase reporter gene downstream of the PGC-1α promoter [3] | expression of genes such as PGC-1α (quantitative RT-PCR) [5] | amount of mitochondria (JC-1 green fluorescence, FL1) [6] | mitochondrial membrane potential (JC-1 red fluorescence, FL2) [6] | amount of dimethylated H3K4 in other LSD1 target gene promoters such as PDK4 [7] | expression of the LSD1 target candidates (microarray) [4, 10] | also measured |
| --- | --- | --- | --- | --- | --- | --- | --- | --- | --- |
| FADS siRNA: siRNA against FAD synthase: sense SEQ ID NO: 35, antisense SEQ ID NO: 36 (sense GAGCCCUUGGAGGAAUGUCTT; antisense GACAUUCCUCCAAGGGCUCTT; sugars from the 5' end r19 d2, backbone not given here) | activated | decreased |  |  |  |  |  |  |  |
| LSD1 siRNA: siRNA against LSD1: sense SEQ ID NO: 29, antisense SEQ ID NO: 30 (sense CACAAGGAAAGCUAGAAGATT; antisense UCUUCUAGCUUUCCUUGUGTT; sugars from the 5' end r19 d2, backbone not given here) |  |  | activated (disinhibited) | Induction of the expression | the same results were obtained | the same results were obtained | The same results were obtained |  | number of target candidates induced to a higher level (2-fold or more) ([4]; differentiating 3T3-L1 cells, 24 hours in differentiation induction medium, microarray): 601; amount of dimethylated H3K4 in PGC-1α gene promoter versus control [7]: approximately 2 fold |
| RFK siRNA: siRNA against riboflavin kinase: sense SEQ ID NO: 33, antisense SEQ ID NO: 34 (sense UCUUCCAGCUGAUGUGUCUTT; antisense AGACACAUCAGCUGGAAGATT; sugars from the 5' end r19 d2, backbone not given here) | activated | decreased |  |  |  |  |  |  | expression of a majority of LSD1 target genes (microarray) ([4]; 3T3-L1 cells, RFK knock-down, 24 hours differentiation induction): induced |
| BHC80 siRNA: siRNA against LSD1 coupling factor BHC80: sense SEQ ID NO: 31, antisense SEQ ID NO: 32 (sense GUUCCAGAUACAGCCAUUGTT; antisense CAAUGGCUGUAUCUGGAACTT; sugars from the 5' end r19 d2, backbone not given here) |  |  |  | Induction of the expression |  |  |  | induced |  |
| N[C@@H]1C[C@H]1c1ccccc1 (racemic) [tranylcypromine, reference compound] |  |  | activated (disinhibited) | Induction of the expression | stimulatory effect | stimulatory effect | The same results were obtained | induced | amount of dimethylated H3K4 in PGC-1α promoter ([7]; under treatment): increase in the amount of dimethylated H3K4 was detected; activation of LSD1 target genes such as PGC-1α compared with other MAO inhibitors [8]: significant activation; expression of LSD1 target genes including PGC-1α in fat around the testis [9]: increased; expression of LSD1 target genes including PGC-1α in the liver [9]: The same results as described above were obtained |
